The target in one experiment is human FGFR-3 (Homo sapiens (Human), UniProt P22607). Nature of the experiment: FGFR-3 kinase assay (TR-FRET). The class given is biochemical. Particulars: 10 μM ATP, 15 min pre-incubation with enzyme. On the technique in general: TR-FRET usually uses a lanthanide donor and a delayed reading to cut background.
The next experiment deals with human mTOR (Homo sapiens (Human), UniProt P42345). Put plainly: mTOR kinase assay (TR-FRET, for comparative purposes). It counts as biochemical. Particulars: for inhibition at 1 µM: read-out: mTOR % inhibition @ 1 μM, 1 μM test compound, 40 μM ATP, mean values. How it is done: mTOR inhibitory activity of the compounds of the present invention was quantified employing the TR-FRET based mTOR assay as described in the following paragraphs:
Test compounds were dissolved in DMSO to generate 10 mM stock solutions. These solutions were first 10-fold diluted by 100% DMSO to get 1 mM solutions in 100% DMSO, then 100-fold diluted by 50% DMSO to get 10 μM solutions in 50% DMSO.
(final concentration in the 10 μl assay volume=1 nM) in FRET buffer.
For this, the fluorescence emissions at 495 nm and 520 nm after excitation at 340 nm was measured in an Envision 2104 multilabel reader (Perkin-Elmer).

Another experiment addresses human FGFR-1 (Homo sapiens, UniProt P11362). Nature of the experiment: FGFR-1 high ATP kinase assay (TR-FRET).

Each structure is given as a SMILES string. Structures can show the parent of a compound that is named as a salt.

Sequence of human mTOR (P42345 1360-2549): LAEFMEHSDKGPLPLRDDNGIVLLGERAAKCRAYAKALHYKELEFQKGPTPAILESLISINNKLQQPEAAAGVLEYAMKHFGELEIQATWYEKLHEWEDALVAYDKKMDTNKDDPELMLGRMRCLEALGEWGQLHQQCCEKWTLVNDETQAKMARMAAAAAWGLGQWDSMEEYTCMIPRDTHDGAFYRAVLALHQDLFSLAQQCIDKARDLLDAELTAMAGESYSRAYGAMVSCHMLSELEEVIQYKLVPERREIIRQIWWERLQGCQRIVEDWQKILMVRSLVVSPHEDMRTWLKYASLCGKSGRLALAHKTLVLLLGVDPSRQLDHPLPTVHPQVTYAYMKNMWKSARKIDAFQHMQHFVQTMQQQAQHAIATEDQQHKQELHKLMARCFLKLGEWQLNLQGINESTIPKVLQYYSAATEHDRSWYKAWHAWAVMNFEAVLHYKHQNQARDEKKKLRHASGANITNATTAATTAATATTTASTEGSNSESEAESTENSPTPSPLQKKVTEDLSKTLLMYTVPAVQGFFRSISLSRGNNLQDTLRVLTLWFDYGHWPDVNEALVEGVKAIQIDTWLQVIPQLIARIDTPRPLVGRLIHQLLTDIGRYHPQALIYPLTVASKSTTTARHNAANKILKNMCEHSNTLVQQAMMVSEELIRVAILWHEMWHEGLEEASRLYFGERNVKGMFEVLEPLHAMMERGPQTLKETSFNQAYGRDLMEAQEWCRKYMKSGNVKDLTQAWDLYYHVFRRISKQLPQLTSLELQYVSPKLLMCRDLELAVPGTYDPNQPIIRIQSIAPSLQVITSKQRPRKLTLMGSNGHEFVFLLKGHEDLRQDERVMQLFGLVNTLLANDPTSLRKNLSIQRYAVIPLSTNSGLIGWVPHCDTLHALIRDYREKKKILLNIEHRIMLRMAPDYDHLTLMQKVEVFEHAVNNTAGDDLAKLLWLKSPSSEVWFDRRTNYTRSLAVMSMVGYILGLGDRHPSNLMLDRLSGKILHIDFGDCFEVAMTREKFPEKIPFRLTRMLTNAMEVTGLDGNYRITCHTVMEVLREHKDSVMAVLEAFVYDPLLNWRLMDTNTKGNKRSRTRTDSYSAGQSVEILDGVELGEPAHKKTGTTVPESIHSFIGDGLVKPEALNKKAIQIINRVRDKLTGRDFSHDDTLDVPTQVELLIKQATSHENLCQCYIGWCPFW
Sequence of human FGFR-1 (P11362 22-822 limits assumed): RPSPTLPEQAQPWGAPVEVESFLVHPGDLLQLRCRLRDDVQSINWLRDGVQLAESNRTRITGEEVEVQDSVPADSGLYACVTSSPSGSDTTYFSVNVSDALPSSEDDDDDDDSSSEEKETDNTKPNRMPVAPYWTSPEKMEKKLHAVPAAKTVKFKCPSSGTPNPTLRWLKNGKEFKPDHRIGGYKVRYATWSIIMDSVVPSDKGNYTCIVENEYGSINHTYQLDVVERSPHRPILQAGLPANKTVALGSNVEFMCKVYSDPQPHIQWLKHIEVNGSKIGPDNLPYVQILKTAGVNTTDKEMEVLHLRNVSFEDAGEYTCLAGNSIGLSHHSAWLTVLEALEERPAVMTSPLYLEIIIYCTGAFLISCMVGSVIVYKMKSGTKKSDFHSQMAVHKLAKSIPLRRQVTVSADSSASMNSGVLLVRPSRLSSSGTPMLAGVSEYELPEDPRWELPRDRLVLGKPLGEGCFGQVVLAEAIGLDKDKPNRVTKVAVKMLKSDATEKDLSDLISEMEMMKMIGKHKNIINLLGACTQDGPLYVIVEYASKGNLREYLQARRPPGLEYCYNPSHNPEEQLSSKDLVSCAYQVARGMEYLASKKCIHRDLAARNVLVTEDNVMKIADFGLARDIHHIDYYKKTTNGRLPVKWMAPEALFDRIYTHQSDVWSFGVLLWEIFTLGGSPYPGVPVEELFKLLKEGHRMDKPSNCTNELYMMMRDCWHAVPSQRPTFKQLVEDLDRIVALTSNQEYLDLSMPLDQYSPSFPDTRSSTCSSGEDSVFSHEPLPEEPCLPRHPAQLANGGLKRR
Sequence of human FGFR-3 (P22607 397-806): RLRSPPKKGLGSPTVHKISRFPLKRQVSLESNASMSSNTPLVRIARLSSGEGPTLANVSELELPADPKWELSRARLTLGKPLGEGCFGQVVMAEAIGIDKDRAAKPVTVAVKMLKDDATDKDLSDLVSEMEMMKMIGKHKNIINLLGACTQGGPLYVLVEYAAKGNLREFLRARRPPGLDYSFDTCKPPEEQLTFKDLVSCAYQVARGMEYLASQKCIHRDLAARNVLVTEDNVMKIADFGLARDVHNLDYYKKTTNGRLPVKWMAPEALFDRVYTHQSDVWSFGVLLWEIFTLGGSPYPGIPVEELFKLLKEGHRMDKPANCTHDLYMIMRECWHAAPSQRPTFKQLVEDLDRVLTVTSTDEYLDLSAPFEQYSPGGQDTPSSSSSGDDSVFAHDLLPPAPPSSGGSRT

Turning to `COc1cc(C)cc2cc(-c3cc(CN4CCCN(CCO)CC4)n4ncnc(N)c34)sc12` [Example 59], the IC50 (as a rule, the concentration at which inhibition is half-maximal) at human FGFR-3 is 47.7 nM; on human FGFR-1, 39.4 nM. The inhibition (as a rule, the change of the read-out against control, counted positive when it falls) at 1 µM on human mTOR was found to be 7%.
Take `COc1cc(C)cc2cc(-c3cc(Cn4cc(C)nc4C)n4ncnc(N)c34)sc12` [Example 123]: the figures for the half-maximal inhibitory concentration (IC50) on human FGFR-3 and against human FGFR-1 were 58 nM and 28.3 nM, respectively. Further, the inhibition at 1 µM on human mTOR was 47.8%.
For `COCCN(C)Cc1cc(-c2cc3cc(C)cc(OC)c3s2)c2c(N)ncnn12` [Example 76], in that order: 73.7 nM, 83 nM and 29.9%.
In the same order, the values of `COc1cc(C)cc2cc(-c3cc(COCCN4CCOC4=O)n4ncnc(N)c34)sc12` [Example 116] are 71.5 nM, 90.3 nM and 28%.
In the same order, the values of `COc1cc(C)cc2cc(-c3cc(C(=O)N4CCC[C@@H](N)C4)n4ncnc(N)c34)sc12` [Example 104] are 14.6 nM, 28.1 nM and 17.9%.
With `COc1cc(C)cc2cc(-c3cc(CN(C)CCC(N)=O)n4ncnc(N)c34)sc12` [Example 67], the IC50 against human FGFR-3 came to 28.4 nM; at human FGFR-1 it was 53.1 nM. Further, at human mTOR, the inhibition at 1 µM stood at 48%.
Consider `COc1cc(C)cc2cc(-c3cc(CN4CCC(N5CCCC5)C4)n4ncnc(N)c34)sc12` (stereo not drawn) [Example 60], for which the figures for the half-inhibitory concentration (IC50) at human FGFR-3 and at human FGFR-1 were 58.6 nM and 39.6 nM, respectively. For the same compound, the inhibition at 1 µM on human mTOR worked out at 11.3%.
For `COc1cc(C)cc2cc(-c3cc(CNC4CCCC4O)n4ncnc(N)c34)sc12` (stereo not drawn) [Example 83], in that order: 97.9 nM, 98.6 nM and 18.3%.
For `CCN(Cc1cc(-c2cc3cc(C)cc(OC)c3s2)c2c(N)ncnn12)C(C)CO` (stereo not drawn) [Example 77], in that order: 82.3 nM, 84.1 nM and 20.2%.
For `COc1cc(C)cc2cc(-c3cc(CN4CCNC(=O)C4(C)C)n4ncnc(N)c34)sc12` [Example 11, 4-{[4-Amino-5-(7-methoxy-5-methyl-1-benzothiophen-2-yl)pyrrolo[2,1-f][1,2,4]triazin-7-yl]-methyl}-3,3-dimethylpiperazin-2-one], the figures for the half-inhibitory concentration (IC50) against human FGFR-3 and on human FGFR-1 were 146 nM and 95 nM, respectively. The inhibition at 1 µM on human mTOR was 27.8%.
For `COc1cc(C)cc2cc(-c3cc(CN4CC(N5CCCC5)C4)n4ncnc(N)c34)sc12` [Example 71], in that order: 79.3 nM, 63.4 nM and 21.5%.
Consider `COc1cc(C)cc2cc(-c3cc(CNC(C)(C)CN4CCCC4)n4ncnc(N)c34)sc12` [Example 57], for which the half-inhibitory concentration (IC50) at human FGFR-3 is 53.3 nM; on human FGFR-1, 32.5 nM. Also, the inhibition at 1 µM on human mTOR amounted to 16.2%.
Take `COc1cc(C)cc2cc(-c3cc(CN4CC(O)C4)n4ncnc(N)c34)sc12` [Example 91]: the IC50 worked out at 23.9 nM against human FGFR-3 and 36.9 nM against human FGFR-1. The inhibition at 1 µM at human mTOR is 17.7%.
For the compound `COc1cc(C)cc2cc(-c3cc(CN4CC(N(C)C)C4)n4ncnc(N)c34)sc12` [Example 66], the IC50 against human FGFR-3 is 67.2 nM; on human FGFR-1 it was 49.6 nM. Besides, on human mTOR, the inhibition at 1 µM is 5.9%.
On to `COc1cc(C)cc2cc(-c3cc(CN4CCCC(O)C4)n4ncnc(N)c34)sc12` (stereo not drawn) [Example 70], for which the half-inhibitory concentration (IC50) on human FGFR-3 came to 57.7 nM; against human FGFR-1 it was 62 nM. For the same compound, the inhibition at 1 µM on human mTOR worked out at 27.9%.
In the same order, the values of `COc1cc(C)cc2cc(-c3cc(CN[C@@H](C)C(N)=O)n4ncnc(N)c34)sc12` [Example 85] are 22.1 nM, 45.4 nM and 28.2%.
For `CNC(=O)CNCc1cc(-c2cc3cc(C)cc(OC)c3s2)c2c(N)ncnn12` [Example 28], in that order: 63.7 nM, 83.2 nM and 6.9%.
For `COc1cc(C)cc2cc(-c3cc(C(=O)N4CC[C@](C)(N)C4)n4ncnc(N)c34)sc12` [Example 97, [4-Amino-5-(7-methoxy-5-methyl-1-benzothiophen-2-yl)pyrrolo[2,1-f][1,2,4]triazin-7-yl][(3S)-3-amino-3-methylpyrrolidin-1-yl]methanone dihydrochloride], in that order: 9.9 nM, 4.7 nM and 16.7%.
For `COc1cc(C)cc2cc(-c3cc(CN[C@@H](CC(N)=O)C(=O)O)n4ncnc(N)c34)sc12` [Example 92], the half-maximal inhibitory concentration (IC50) on human FGFR-3 came out at 11.7 nM; against human FGFR-1, 46.2 nM. For the same compound, the inhibition at 1 µM at human mTOR was 19.9%.
For `COc1cc(C)cc2cc(-c3cc(CN(C)C4CCS(=O)(=O)C4)n4ncnc(N)c34)sc12` (stereo not drawn) [Example 74], in that order: 87.1 nM, 68.3 nM and 46.9%.
For `COc1cc(C)cc2cc(-c3cc(C(=O)N4CCC(O)CC4)n4ncnc(N)c34)sc12` [Example 101], in that order: 29.1 nM, 29.8 nM and 24.9%.
In the same order, the values of `COc1cc(C)cc2cc(-c3cc(CN4CC5CC5(N)C4)n4ncnc(N)c34)sc12` (stereo not drawn) [Example 27] are 60.8 nM, 42.2 nM and 2.4%.
As for `COc1cc(C)cc2cc(-c3cc(COCCN4CCCC4)n4ncnc(N)c34)sc12` [Example 107, 5-(7-Methoxy-5-methyl-1-benzothiophen-2-yl)-7-{[2-(pyrrolidin-1-yl)ethoxy]methyl}pyrrolo-[2,1-f][1,2,4]triazin-4-amine hydrochloride], the IC50 is 46.1 nM at human FGFR-3 and 57.3 nM on human FGFR-1. For the same compound, at human mTOR, the inhibition at 1 µM worked out at 15%.
In the case of `CCNC(=O)COCc1cc(-c2cc3cc(C)cc(OC)c3s2)c2c(N)ncnn12` [Example 114], the IC50 came out at 30.5 nM at human FGFR-3 and 65.3 nM against human FGFR-1. Also, the inhibition at 1 µM at human mTOR was 27.7%.
For `COc1cc(C)cc2cc(-c3cc(COCC(C)N)n4ncnc(N)c34)sc12` (stereo not drawn) [Example 119], in that order: 29.7 nM, 26.7 nM and 25.1%.
In the same order, the values of `COc1cc(C)cc2cc(-c3cc(CNC4CCN(C(C)C)CC4)n4ncnc(N)c34)sc12` [Example 80] are 120 nM, 93.4 nM and 3%.
Consider `COc1cc(Cl)cc2cc(-c3cc(CN4CCNCC4)n4ncnc(N)c34)sc12` [Example 4, 5-(5-Chloro-7-methoxy-1-benzothiophen-2-yl)-7-(piperazin-1-ylmethyl)pyrrolo[2,1-f][1,2,4]-triazin-4-amine trihydrochloride], for which the half-maximal inhibitory concentration (IC50) on human FGFR-3 was 79 nM; against human FGFR-1 it was 34.7 nM. On human mTOR, the inhibition at 1 µM was found to be 26.2%.
For `COc1cc(C)cc2cc(-c3cc(CN4CCC(N)CC4)n4ncnc(N)c34)sc12` [Example 26], the 50% inhibitory concentration (IC50) turned out to be 130 nM against human FGFR-3 and 82.6 nM on human FGFR-1. Also, the “mTOR % inhibition @ 1 μM” value on human mTOR (1 μM test compound, 40 μM ATP, mean values) is recorded as “no inhib. effect detect”.
Turning to `COc1cc(C)cc2cc(-c3cc(CN4CC[C@@H](O)C4)n4ncnc(N)c34)sc12` [Example 84], the IC50 on human FGFR-3 was 39.1 nM; against human FGFR-1, 38.9 nM. At human mTOR, the inhibition at 1 µM is 15.3%.
For the compound `COc1cc(C)cc2cc(-c3cc(CN4CCC[C@@H](N)C4)n4ncnc(N)c34)sc12` [Example 55], the IC50 at human FGFR-3 is 18.7 nM; on human FGFR-1 it was 16.2 nM. Besides, at human mTOR, the inhibition at 1 µM stood at 24.6%.
For the compound `COc1cc(C)cc2cc(-c3cc(CN4CC[C@@H](N)C4)n4ncnc(N)c34)sc12` [Example 53], the concentration for half-maximal inhibition (IC50) against human FGFR-3 was determined as 145 nM; on human FGFR-1 it was 94.1 nM. For the same compound, the inhibition at 1 µM on human mTOR was 12.6%.
In the same order, the values of `COc1cc(C)cc2cc(-c3cc(CN4CC5CNCC5C4)n4ncnc(N)c34)sc12` (stereo not drawn) [Example 23] are 69.4 nM, 19.3 nM and 28.1%.
For `COc1cc(C)cc2cc(-c3cc(COC4CCOC4)n4ncnc(N)c34)sc12` (stereo not drawn) [Example 113], the figures for the half-inhibitory concentration (IC50) against human FGFR-3 and against human FGFR-1 were 64.7 nM and 83.1 nM, respectively. On human mTOR, the inhibition at 1 µM was 29.7%.
In the same order, the values of `COc1cc(C)cc2cc(-c3cc(Cn4ccnc4C#N)n4ncnc(N)c34)sc12` [Example 122] are 65.6 nM, 71.8 nM and 35.7%.
Consider `COc1cc(C)cc2cc(-c3cc(CNC4CC4)n4ncnc(N)c34)sc12` [Example 81], for which the half-inhibitory concentration (IC50) is 110 nM against human FGFR-3 and 93.4 nM against human FGFR-1. For the same compound, the inhibition at 1 µM at human mTOR turned out to be 44.7%.
In the same order, the values of `COc1cc(C)cc2cc(-c3cc(CN4CCC(OC)CC4)n4ncnc(N)c34)sc12` [Example 82] are 71.9 nM, 97.3 nM and 18.7%.
In the same order, the values of `COc1cc(C)cc2cc(-c3cc(COC[C@H]4CCCN4)n4ncnc(N)c34)sc12` [Example 110] are 57.4 nM, 51.6 nM and 4.9%.
In the same order, the values of `COc1cc(C)cc2cc(-c3cc(CN4CCN(C(N)=O)CC4)n4ncnc(N)c34)sc12` [Example 68] are 29.3 nM, 55 nM and 43.1%.

The values are drawn from patent publication US9475815B2, “Substituted benzothienyl-pyrrolotriazines and uses thereof” (Bayer Intellectual Property GmbH, priority 2012, dated 2016).
